Reference: patent US11001590B2, “Pyrazolopyrimidine derivatives” (BAYER ANIMAL HEALTH GMBH, priority 2016, dated 2021)

Key:
[1] = log P by HPLC on reversed phase columns (Method L0; [a] acidic, [b] neutral range)
Description: Calibration was done with straight-chain alkan-2-ones (with 3 to 16 carbon atoms) with known log P values (measurement of log P values using retention times with linear interpolation between successive alkanones). Lambda-max-values were determined using UV-spectra from 200 nm to 400 nm and the peak values of the chromatographic signals.

[2] = molecular target: C. elegans Slo-1a (Caenorhabditis elegans, UniProt Q95V25); experiment: In vitro assay 1: C. elegans Slo-1a, action at a recombinant C. elegans CHO cell line (membrane potential measurement)
Description: In Vitro Assay 1: C. Eleqans Slo-La—Action at a Recombinant C. elegans Cell Line
Cells were cultured at 37° C. and 5% CO2 in MEMalpha with Gutamax I (Invitrogen, Nr.: 32571), supplemented with 10% (v/v) heat inactivated fetal bovine serum (Invitrogen, Nr.: 10500), G418 (1 mg/ml, Invitrogen, Nr.: 10131). Cells were detached using Accutase (Sigma, Nr.: A6964).
Membrane Potential Measurements
Laboratory compound testing was performed on 384-well microtiter plates (MTPs, Greiner, Nr.: 781092). 8000 cells/well were plated onto 384-well MTPs and cultured for 20 to 24 hours at 37° C. and 5% CO2. After removal of the cell culture medium, the cells were washed once with tyrode (150 mM NaCl, 0.3 mM KCl, 2 mM CaCl2, 1 mM MgCl2, 0.8 mM NaH2PO4, 5 mM Glucose, 28 mM Hepes, pH 7.4) and then loaded with the voltage sensitive dye of the Membrane Potential Assay Kit diluted in tyrode for 1 h at room temperature.
After starting the measurement of fluorescence using a FLIPR Tetra (Molecular Devices, Exc. 510-545 nm, Emm. 565-625 nm), test compounds were added followed by the addition of KCl tyrode (final assay concentration: 70 mM KCl, 2 mM CaCl2, 1 mM MgCl2, 0.8 mM NaH2PO4, 5 mM Glucose, 28 mM Hepes, pH 7.4, including the voltage sensitive dye). The measurement was completed after 7 minutes.

[3] = system: Dirofilaria immitis microfilariae; experiment: In vitro assay 3: Dirofilaria immitis microfilariae (DIROIM L1), motility; settings: 72 h, reduction of motility vs negative control, 72 h incubation

Sequence of C. elegans Slo-1a (Q95V25 whole entry): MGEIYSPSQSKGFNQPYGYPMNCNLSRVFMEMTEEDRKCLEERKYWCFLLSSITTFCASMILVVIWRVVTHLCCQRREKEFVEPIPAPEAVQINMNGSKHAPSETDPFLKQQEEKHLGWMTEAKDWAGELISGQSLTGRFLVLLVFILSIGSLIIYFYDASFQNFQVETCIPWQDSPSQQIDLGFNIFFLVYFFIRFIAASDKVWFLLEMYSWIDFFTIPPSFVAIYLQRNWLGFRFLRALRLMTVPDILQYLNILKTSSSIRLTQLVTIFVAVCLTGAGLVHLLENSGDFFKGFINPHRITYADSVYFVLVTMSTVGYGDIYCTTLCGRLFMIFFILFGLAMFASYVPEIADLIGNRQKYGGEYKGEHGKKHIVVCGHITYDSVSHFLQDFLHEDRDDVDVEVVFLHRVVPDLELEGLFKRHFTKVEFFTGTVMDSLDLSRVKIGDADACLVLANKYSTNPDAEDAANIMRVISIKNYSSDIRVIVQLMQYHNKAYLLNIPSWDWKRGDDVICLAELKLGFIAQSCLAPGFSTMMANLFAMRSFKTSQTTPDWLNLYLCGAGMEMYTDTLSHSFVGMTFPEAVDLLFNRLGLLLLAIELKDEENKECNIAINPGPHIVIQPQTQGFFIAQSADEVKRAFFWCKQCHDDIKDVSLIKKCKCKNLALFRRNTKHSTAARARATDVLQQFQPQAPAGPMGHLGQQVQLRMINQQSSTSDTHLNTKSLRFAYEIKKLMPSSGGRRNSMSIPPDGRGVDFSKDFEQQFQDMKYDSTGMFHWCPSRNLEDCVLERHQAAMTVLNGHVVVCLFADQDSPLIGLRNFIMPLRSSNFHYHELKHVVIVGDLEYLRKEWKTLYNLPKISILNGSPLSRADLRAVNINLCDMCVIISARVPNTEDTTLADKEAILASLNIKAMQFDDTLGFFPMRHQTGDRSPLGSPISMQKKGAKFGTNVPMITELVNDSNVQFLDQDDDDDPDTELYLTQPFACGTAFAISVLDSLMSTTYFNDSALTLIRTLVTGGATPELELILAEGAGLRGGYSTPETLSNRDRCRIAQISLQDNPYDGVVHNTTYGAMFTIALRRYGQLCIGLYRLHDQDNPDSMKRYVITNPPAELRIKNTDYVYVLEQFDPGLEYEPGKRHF

Compound | chromatographic logP [1] | EC50 [2] [µM] | EC50 [3] [mg/L]
Cc1nn2c(C(C)C)c(C(=O)N[C@H]3CCCc4ccccc43)cnc2c1-c1ccc(Cl)cc1Cl [Example 182] | 5.59 | 0.0126 | < 1
Cc1nn2c(C(C)C)c(C(=O)N[C@H]3CCc4ccccc43)cnc2c1-c1cccc(Cl)n1 [Example 183] | 5.1 | 0.398 | < 10
Cc1nn2c(C(C)C)c(C(=O)N[C@H]3CCOc4ccccc43)cnc2c1-c1cc(F)c(F)c(F)c1 [Example 185] | 4.97 | 0.0126 | < 1
Cc1nn2c(C(C)C)c(C(=O)N[C@H]3CCOc4ccccc43)cnc2c1-c1cc(F)c(Cl)c(F)c1 [Example 190] | 5.39 | 0.0251 | < 1
Cc1nn2c(C(C)C)c(C(=O)N[C@H]3CCOc4ccccc43)cnc2c1-c1cccc(Cl)n1 [Example 195] | 4.85 | 0.158 | < 10
CC(C)c1c(C(=O)N[C@H]2CCOc3ccccc32)cnc2c(-c3cc(Cl)cc(Cl)c3)c(C(F)(F)F)nn12 [Example 196] | 5.84 | 0.0501 | < 10
CC(C)c1c(C(=O)N[C@H]2CCOc3ccccc32)cnc2c(-c3cc(Cl)c(F)c(Cl)c3)c(C(F)(F)F)nn12 [Example 197] | 5.48 | 0.501 | < 10
CSc1nn2c(C(C)C)c(C(=O)N[C@H]3CCOc4ccccc43)cnc2c1-c1cc(Cl)cc(Cl)c1 [Example 202] | 6.35 | 0.0251 | < 10
CSc1nn2c(C(C)C)c(C(=O)N[C@H]3CCc4ccccc43)cnc2c1-c1cc(Cl)cc(Cl)c1 [Example 203] | 6.67 | 0.2 | < 10
Cc1nn2c(C(C)C)c(C(=O)N[C@H]3CCOc4ccccc43)cnc2c1-c1cccc(Br)c1 [Example 204] | 5.02 | 0.0158 | < 0.1
Cc1nn2c(C(C)C)c(C(=O)N[C@H]3CCc4ccccc43)cnc2c1-c1cccc(Br)c1 [Example 205] | 5.31 | 0.0251 | < 0.1
Cc1nn2c(C(C)C)c(C(=O)N[C@H]3CCc4ccccc43)cnc2c1-c1ccc(Br)cc1 [Example 207] | 5.31 | 0.0501 | < 10
Cc1nn2c(C(C)C)c(C(=O)NC3COc4ccccc43)cnc2c1-c1c(F)cccc1F (stereo not drawn) [Example 210] | 3.99 | 0.158 | < 1
CCS(=O)(=O)c1nn2c(C(C)C)c(C(=O)N[C@H]3CCc4ccccc43)cnc2c1-c1cc(Cl)cc(Cl)c1 [Example 211] | 4.62 | 1.26 | < 10
CCS(=O)(=O)c1nn2c(C(C)C)c(C(=O)N[C@H]3CCOc4ccccc43)cnc2c1-c1cc(Cl)cc(Cl)c1 [Example 212] | 4.37 | 0.501 | < 10
CC(C)c1c(C(=O)N[C@H]2CCOc3ccccc32)cnc2c(-c3cc(Cl)cc(Cl)c3)c(S(=O)(=O)C(C)C)nn12 [Example 217] | 4.57 | 0.398 | < 10
Cc1nn2c(C(C)C)c(C(=O)N[C@H]3CCOc4ccccc43)cnc2c1-c1ccc(F)cc1Cl [Example 218] | 4.51 | 0.00158 | < 0.1
Cc1nn2c(C(C)C)c(C(=O)N[C@H]3CCOc4ccccc43)cnc2c1-c1ccc(Cl)c(F)c1 [Example 220] | 5.08 | 0.02 | < 1
Cc1nn2c(C(C)C)c(C(=O)N[C@H]3CCOc4ccccc43)cnc2c1-c1cnc(F)c(F)c1 [Example 221] | 4.13 | 0.01 | < 1
CCC(C)c1c(C(=O)N[C@H]2CCc3ccccc32)cnc2c(-c3c(F)cccc3Cl)c(C)nn12 (stereo partly drawn) [Example 222] | 4.98 | 0.0398 | < 0.1
Cc1nn2c(C(C)C)c(C(=O)N[C@H]3CCc4ccccc43)cnc2c1-c1c(Cl)cccc1Cl [Example 223] | 4.87 | 0.0126 | < 1
Cc1nn2c(CC(C)C)c(C(=O)N[C@H]3CCc4ccccc43)cnc2c1-c1c(F)cccc1Cl [Example 224] | 4.82 | 0.0316 | < 1
Cc1nn2c(CC(C)C)c(C(=O)N[C@H]3CCOc4ccccc43)cnc2c1-c1c(F)cccc1Cl [Example 225] | 4.56 | 0.0126 | < 0.1
Cc1nn2c(Cc3ccc(F)cc3)c(C(=O)N[C@H]3CCc4ccccc43)cnc2c1-c1c(F)cccc1Cl [Example 227] | 4.92 | 2 | < 10
Cc1nn2c(Cc3ccc(F)cc3)c(C(=O)N[C@H]3CCOc4ccccc43)cnc2c1-c1c(F)cccc1Cl [Example 228] | 4.72 | 3.16 | < 1

Compound | chromatographic logP [1] | EC50 [2] [µM] | EC50 [3] [mg/L]
CC(C)c1c(C(=O)N[C@H]2CCc3ccccc32)cnc2c(-c3cc(Cl)cc(Cl)c3)c(S(C)(=O)=O)nn12 [Example 229] | 4.35 | 0.0631 | < 1
Cc1nn2c(C(C)C)c(C(=O)N[C@H]3CCOc4ccccc43)cnc2c1-c1cnccc1Cl [Example 231] | 3.9 | 0.0158 | < 1
Cc1nn2c(C(C)C)c(C(=O)N[C@H]3CCOc4ccccc43)cnc2c1-c1ccc2c(c1)N(C)CC2 [Example 238] | 4.13 | 0.158 | < 10
Cc1nn2c(C(C)C)c(C(=O)N[C@H]3CCOc4ccccc43)cnc2c1-c1ccc2c(c1)OCO2 [Example 239] | 4.08 | 0.0316 | < 10
Cc1nn2c(C(C)C)c(C(=O)N[C@H]3CCOc4ccccc43)cnc2c1-c1ccc2cc[nH]c2c1 [Example 243] | 3.76 | 0.631 | < 10
Cc1nn2c(C(C)C)c(C(=O)N[C@H]3CCOc4ccccc43)cnc2c1-c1ccc2c(c1F)OCO2 [Example 245] | 4.18 | 0.02 | < 1
COc1cccc(-c2c(C)nn3c(C(C)C)c(C(=O)N[C@H]4CCOc5ccccc54)cnc23)c1Cl [Example 247] | 4.19 | 0.01 | < 1
Cc1nn2c(C(C)C)c(C(=O)N[C@H]3CCOc4ccccc43)cnc2c1-c1ccc2c(c1)NCC2 [Example 248] | 2.2 | 0.0501 | < 10
COc1cc(-c2c(C)nn3c(C(C)C)c(C(=O)N[C@H]4CCOc5ccccc54)cnc23)cc(OC)c1OC [Example 249] | 3.94 | 0.158 | < 1
Cc1nn2c(C(C)C)c(C(=O)N[C@H]3CCOc4ccccc43)cnc2c1-c1ccc2c(c1)OC(F)(F)O2 [Example 251] | 5.03 | 0.00316 | < 0.1
Cc1nn2c(C(C)C)c(C(=O)N[C@H]3CCOc4ccccc43)cnc2c1-c1ccc2c(c1)CC(=O)N2 [Example 252] | 2.87 | 1.26 | < 10
Cc1nn2c(C(C)C)c(C(=O)N[C@H]3CCOc4ccccc43)cnc2c1-c1cc(O)c(F)c(F)c1 [Example 259] | 3.61 | 0.0158 | < 1
Cc1nn2c(C(C)C)c(C(=O)N[C@H]3CCOc4ccccc43)cnc2c1-c1ccccc1C#N [Example 264] | 3.68 | 0.0251 | < 1
Cc1nn2c(C(C)C)c(C(=O)N[C@H]3CCOc4ccccc43)cnc2c1-c1cccc2c1OCO2 [Example 266] | 4.02 | 0.002 | < 1
Cc1nc2c(-c3cccc(Cl)c3Cl)c(C)nn2c(C)c1C(=O)N[C@H]1CCOc2ccccc21 [Example 267] | 3.86 | 0.158 | < 10
Cc1nn2c(C(C)C)c(C(=O)N[C@H]3CCc4ccccc43)cnc2c1-c1cccc(S(C)(=O)=O)c1 [Example 288] | 3.57 | 0.2 | < 10
Cc1nn2c(C(C)C)c(C(=O)N[C@H]3CCc4ccccc43)cnc2c1-c1cccnc1 [Example 297] | 2.19 | 1.26 | < 10
CC(=O)Nc1cccc(-c2c(C)nn3c(C(C)C)c(C(=O)N[C@H]4CCc5ccccc54)cnc23)c1 [Example 298] | 3.3 | 1.26 | < 10
Cc1nn2c(C3CC3)c(C(=O)N[C@H]3CCc4ccccc43)cnc2c1-c1cccc(C(F)(F)F)c1 [Example 304] | 4.55 | 0.02 | < 1
Cc1nn2c(C(C)C)c(C(=O)N[C@H]3CCc4ccccc43)cnc2c1-c1cccc(NS(C)(=O)=O)c1 [Example 308] | 3.44 | 1.58 | < 10
Cc1nn2c(C(C)C)c(C(=O)N[C@H]3CCc4ccccc43)cnc2c1-c1cccc(OC(F)(F)F)c1 [Example 309] | 5.48 | 0.0316 | < 10
COc1cc(-c2c(C)nn3c(C(C)C)c(C(=O)N[C@H]4CCc5ccccc54)cnc23)cc(C(F)(F)F)c1 [Example 312] | 5.41 | 0.0251 | < 10
Cc1nn2c(C(C)C)c(C(=O)N[C@H]3CCc4ccccc43)cnc2c1-c1ccnc(Cl)c1 [Example 313] | 4.23 | 0.158 | < 10
Cc1nn2c(C(C)C)c(C(=O)N[C@H]3CCc4ccccc43)cnc2c1-c1cncc(Cl)c1 [Example 314] | 4.19 | 0.0158 | < 0.1
Cc1nn2c(C(C)C)c(C(=O)N[C@H]3CCc4ccccc43)cnc2c1-c1cccc(NC(=O)C(F)(F)F)c1 [Example 315] | 4.28 | 0.251 | < 1
